Article PMC3744640 (Bioorganic & medicinal chemistry letters, 2013)
“Also recorded” adds a separate entry of the source.

What was measured:
[1] = system: Huh-7; assay: growth inhibition of Huh-7 liver carcinoma cells; assay type: cell-based; details: up to 100 μM
[2] = system: HepG2; assay: growth inhibition of HepG2 liver carcinoma cells; assay type: cell-based; details: up to 100 μM
[3] = molecular target: VEGFR-2 (Homo sapiens, UniProt P35968); assay: VEGFR-2 inhibition at a single concentration; assay type: biochemical; details: 10 μM concentration of test compound
Chain of VEGFR-2 (P35968 20-1356): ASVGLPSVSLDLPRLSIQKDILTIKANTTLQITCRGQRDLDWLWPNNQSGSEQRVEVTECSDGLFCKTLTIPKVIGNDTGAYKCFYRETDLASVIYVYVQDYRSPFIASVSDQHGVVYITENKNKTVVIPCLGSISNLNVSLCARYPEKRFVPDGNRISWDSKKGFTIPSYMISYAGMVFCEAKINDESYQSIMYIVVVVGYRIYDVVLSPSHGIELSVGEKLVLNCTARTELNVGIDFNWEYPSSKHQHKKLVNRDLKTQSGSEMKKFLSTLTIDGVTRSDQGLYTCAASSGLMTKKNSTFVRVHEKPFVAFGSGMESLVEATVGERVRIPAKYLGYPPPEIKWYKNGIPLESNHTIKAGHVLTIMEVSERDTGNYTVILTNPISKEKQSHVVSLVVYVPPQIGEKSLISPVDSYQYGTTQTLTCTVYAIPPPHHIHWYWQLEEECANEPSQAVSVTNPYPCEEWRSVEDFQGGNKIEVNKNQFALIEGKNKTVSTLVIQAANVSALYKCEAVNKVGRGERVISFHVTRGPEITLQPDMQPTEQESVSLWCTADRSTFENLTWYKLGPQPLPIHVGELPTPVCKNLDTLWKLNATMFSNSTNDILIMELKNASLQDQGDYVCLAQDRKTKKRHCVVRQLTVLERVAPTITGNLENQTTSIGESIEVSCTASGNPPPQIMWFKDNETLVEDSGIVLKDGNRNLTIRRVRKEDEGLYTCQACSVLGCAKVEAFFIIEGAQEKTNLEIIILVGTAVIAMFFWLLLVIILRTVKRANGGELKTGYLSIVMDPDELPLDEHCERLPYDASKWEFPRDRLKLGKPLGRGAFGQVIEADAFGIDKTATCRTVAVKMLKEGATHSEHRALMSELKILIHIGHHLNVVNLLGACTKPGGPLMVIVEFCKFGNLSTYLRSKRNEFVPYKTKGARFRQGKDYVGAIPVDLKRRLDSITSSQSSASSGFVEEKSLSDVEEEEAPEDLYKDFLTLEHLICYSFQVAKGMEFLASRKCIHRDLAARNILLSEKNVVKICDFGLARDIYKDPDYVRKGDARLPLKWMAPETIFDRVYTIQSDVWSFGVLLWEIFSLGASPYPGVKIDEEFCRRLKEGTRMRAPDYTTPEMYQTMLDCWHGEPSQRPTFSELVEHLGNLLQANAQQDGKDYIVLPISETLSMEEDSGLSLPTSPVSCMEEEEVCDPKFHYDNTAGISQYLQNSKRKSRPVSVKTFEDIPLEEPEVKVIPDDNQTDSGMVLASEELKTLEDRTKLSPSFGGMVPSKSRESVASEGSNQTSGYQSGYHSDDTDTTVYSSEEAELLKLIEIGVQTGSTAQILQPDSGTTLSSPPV

[4] = molecular target: C-RAF (Homo sapiens, UniProt P04049); assay: C-RAF kinase inhibition; assay type: biochemical; details: compared with t-CUPM
Chain of C-RAF (P04049 whole entry): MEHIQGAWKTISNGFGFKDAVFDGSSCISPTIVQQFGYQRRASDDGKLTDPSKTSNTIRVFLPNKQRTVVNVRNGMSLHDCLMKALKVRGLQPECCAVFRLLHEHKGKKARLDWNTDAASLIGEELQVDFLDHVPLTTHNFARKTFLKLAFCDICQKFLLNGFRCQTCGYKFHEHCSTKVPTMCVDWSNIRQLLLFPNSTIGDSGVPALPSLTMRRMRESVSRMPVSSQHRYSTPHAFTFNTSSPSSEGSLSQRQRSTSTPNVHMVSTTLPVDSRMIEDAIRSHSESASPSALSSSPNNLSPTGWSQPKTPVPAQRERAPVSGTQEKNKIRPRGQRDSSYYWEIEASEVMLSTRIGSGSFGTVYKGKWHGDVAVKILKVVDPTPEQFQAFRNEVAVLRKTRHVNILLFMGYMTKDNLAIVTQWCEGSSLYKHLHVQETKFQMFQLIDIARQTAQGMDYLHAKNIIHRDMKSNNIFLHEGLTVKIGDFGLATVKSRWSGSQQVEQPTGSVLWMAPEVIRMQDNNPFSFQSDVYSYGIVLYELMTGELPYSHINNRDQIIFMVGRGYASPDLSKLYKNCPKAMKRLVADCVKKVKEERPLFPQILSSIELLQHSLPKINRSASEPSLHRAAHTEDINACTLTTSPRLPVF

[5] = system: 10 recombinant kinases; details: 10 μM concentration
[6] = system: lipopolysaccharide-induced inflammation; details: lipopolysaccharide-induced inflammation murine model; cited from earlier work

SMILES	Percent inhibition against VEGFR-2 (in words) [3]	further results
CS(=O)(=O)N1CCC(NC(=O)Nc2ccc(OC(F)(F)F)cc2)CC1 [TUPS]		effect on cell viability (in words) [1]: no observable effects on cell viability; effect on cell viability (in words) [2]: no observable effects on cell viability
CNC(=O)c1cc(O[C@H]2CC[C@H](NC(=O)Nc3ccc(Cl)c(C(F)(F)F)c3)CC2)ccn1 [compound 4, trans-4-{4-[3-(4-chloro-3-trifluoromethyl-phenyl)-ureido]-cyclohexyloxy}-pyridine-2-carboxylic acid methylamide]	displayed potency towards VEGFR-2	
O=C(Nc1ccc(Cl)c(C(F)(F)F)c1)N[C@H]1CC[C@H](Oc2cccc(C(=O)O)c2)CC1 [compound 7, trans-3-{4-[3-(4-chloro-3-trifluoromethyl-phenyl)-ureido]-cyclohexyloxy}-benzoic acid]	lack of VEGFR-2 inhibition	
CNC(=O)c1cccc(O[C@H]2CC[C@H](NC(=O)Nc3ccc(Cl)c(C(F)(F)F)c3)CC2)c1 [compound 8]		Percent inhibition against VEGFR-2 (in words) ([3]; 10 µM): little inhibitory activity; also recorded: lack of VEGFR-2 inhibition
CNC(=O)c1ccc(O[C@H]2CC[C@H](NC(=O)Nc3ccc(Cl)c(C(F)(F)F)c3)CC2)cn1 [compound 9]	displayed potency towards VEGFR-2	fold less activity against C-RAF relative to t-CUPM [4]: 2.3 fold
O=C(Nc1ccc(OC(F)(F)F)cc1)N[C@H]1CC[C@H](Oc2ccc(C(=O)O)cc2)CC1 [compound 12, trans-4-{4-[3-(4-trifluoromethoxy-phenyl)-ureido]-cyclohexyloxy}-benzoic acid]		multi-kinase inhibition (in words) [5]: no significant multi-kinase inhibition
CNC(=O)c1cc(O[C@H]2CC[C@@H](NC(=O)Nc3ccc(Cl)c(C(F)(F)F)c3)CC2)ccn1 [compound 17]	lack of VEGFR-2 inhibition	
CNC(=O)c1cc(Oc2ccc(NC(=O)NC34CC5CC(CC(C5)C3)C4)cc2)ccn1 [compound 21]	displayed potency towards VEGFR-2	
CNC(=O)c1cc(Oc2ccc(NC(=O)Nc3ccc(OC(F)(F)F)cc3)cc2)ccn1 [compound 22]	displayed potency towards VEGFR-2	
CNC(=O)c1cc(Oc2ccc(NC(=O)Nc3ccc(Cl)c(C(F)(F)F)c3)cc2)ccn1 [sorafenib]		anti-inflammatory response (in words) [6]: exhibits similar anti-inflammatory responses as conventional sEH inhibitors
